Legend:
CYP1A2 = biological target: T1, CYP1A2 (Homo sapiens, UniProt P05177); assay: Inhibition of CYP1A2 at 10 uM; type: ADME
T1 sequence (P05177 whole entry): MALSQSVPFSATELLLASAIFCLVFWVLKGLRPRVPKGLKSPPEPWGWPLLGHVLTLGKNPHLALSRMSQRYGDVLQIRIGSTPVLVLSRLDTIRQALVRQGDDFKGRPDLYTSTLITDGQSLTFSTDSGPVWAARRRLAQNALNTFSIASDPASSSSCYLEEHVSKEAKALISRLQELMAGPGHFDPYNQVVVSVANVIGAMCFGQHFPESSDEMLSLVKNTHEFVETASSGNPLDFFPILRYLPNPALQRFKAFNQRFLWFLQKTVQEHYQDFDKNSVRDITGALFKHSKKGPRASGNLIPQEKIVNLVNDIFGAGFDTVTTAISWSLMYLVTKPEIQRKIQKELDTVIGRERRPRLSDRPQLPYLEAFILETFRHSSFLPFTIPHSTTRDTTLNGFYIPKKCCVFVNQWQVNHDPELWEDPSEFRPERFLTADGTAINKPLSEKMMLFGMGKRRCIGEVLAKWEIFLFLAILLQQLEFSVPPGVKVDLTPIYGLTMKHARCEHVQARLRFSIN

[1] = biological target: Dual specificity tyrosine-phosphorylation-regulated kinase 1A (Homo sapiens) (UniProt Q13627); assay: Inhibition of DYRK1A at 1 uM
[2] = biological target: Insulin-like growth factor 1 receptor (Homo sapiens) (UniProt P08069); assay: Inhibition of IGF1R at 1 uM
Sequence of Insulin-like growth factor 1 receptor (Homo sapiens) (P08069 31-736 limits assumed): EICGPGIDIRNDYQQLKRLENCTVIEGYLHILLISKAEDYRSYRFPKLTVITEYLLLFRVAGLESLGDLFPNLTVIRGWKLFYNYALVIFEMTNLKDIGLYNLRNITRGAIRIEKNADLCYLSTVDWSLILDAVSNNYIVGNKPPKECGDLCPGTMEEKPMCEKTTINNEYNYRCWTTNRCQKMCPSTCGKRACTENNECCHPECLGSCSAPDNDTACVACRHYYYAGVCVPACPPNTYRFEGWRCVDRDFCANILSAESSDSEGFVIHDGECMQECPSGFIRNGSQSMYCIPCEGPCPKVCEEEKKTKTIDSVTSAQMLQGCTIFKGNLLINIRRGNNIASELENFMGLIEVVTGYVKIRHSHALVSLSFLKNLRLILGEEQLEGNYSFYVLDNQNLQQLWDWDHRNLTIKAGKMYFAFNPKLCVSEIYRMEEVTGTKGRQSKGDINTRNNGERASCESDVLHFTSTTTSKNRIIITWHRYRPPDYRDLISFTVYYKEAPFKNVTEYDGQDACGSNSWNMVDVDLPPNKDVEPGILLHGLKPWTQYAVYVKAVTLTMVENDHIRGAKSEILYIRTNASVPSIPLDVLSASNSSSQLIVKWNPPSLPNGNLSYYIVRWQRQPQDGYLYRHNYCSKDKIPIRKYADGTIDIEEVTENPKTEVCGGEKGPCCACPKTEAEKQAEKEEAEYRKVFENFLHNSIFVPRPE
Sequence of Insulin-like growth factor 1 receptor (Homo sapiens) (P08069 741-1367 limits assumed): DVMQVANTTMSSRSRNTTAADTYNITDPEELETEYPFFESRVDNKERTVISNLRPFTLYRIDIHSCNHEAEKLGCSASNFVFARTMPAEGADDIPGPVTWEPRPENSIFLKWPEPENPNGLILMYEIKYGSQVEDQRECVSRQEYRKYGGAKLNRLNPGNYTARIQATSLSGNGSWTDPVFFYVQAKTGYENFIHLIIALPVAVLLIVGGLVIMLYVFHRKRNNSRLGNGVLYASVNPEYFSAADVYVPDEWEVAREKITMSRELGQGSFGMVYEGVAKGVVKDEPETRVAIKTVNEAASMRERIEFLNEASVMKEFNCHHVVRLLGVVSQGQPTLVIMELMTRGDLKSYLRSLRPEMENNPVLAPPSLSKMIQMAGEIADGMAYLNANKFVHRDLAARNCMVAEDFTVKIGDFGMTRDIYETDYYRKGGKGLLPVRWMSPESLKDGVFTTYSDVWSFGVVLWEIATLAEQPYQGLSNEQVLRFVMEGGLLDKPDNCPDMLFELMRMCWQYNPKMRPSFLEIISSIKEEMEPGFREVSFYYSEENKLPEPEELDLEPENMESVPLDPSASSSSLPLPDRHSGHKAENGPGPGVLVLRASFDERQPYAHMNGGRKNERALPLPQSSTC

[3] = biological target: T2, Inhibitor of nuclear factor kappa-B kinase subunit beta (Homo sapiens) (UniProt O14920); assay: Inhibition of IKKbeta at 1 uM
T2 sequence (whole entry): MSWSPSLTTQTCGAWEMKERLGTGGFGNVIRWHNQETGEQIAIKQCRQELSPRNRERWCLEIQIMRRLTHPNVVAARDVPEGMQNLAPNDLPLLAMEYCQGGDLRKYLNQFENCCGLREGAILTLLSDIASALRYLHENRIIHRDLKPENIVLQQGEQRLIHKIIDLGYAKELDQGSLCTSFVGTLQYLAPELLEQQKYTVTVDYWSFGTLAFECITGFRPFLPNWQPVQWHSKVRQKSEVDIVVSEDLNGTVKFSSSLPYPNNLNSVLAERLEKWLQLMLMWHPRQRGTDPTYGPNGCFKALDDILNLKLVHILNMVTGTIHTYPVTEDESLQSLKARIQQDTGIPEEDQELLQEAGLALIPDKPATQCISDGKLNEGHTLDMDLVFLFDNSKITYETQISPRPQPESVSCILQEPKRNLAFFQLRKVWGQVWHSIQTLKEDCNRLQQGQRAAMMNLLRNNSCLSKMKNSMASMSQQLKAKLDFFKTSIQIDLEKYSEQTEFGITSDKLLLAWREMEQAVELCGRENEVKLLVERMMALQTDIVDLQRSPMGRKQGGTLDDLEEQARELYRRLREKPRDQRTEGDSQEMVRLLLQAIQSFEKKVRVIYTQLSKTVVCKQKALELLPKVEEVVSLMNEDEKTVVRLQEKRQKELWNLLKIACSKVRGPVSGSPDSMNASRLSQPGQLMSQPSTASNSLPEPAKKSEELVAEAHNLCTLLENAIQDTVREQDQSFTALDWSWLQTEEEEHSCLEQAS

[4] = biological target: T3, Serine/threonine-protein kinase 4 (Homo sapiens) (UniProt Q13043); assay: Inhibition of MST1 at 1 uM
T3 sequence (whole entry): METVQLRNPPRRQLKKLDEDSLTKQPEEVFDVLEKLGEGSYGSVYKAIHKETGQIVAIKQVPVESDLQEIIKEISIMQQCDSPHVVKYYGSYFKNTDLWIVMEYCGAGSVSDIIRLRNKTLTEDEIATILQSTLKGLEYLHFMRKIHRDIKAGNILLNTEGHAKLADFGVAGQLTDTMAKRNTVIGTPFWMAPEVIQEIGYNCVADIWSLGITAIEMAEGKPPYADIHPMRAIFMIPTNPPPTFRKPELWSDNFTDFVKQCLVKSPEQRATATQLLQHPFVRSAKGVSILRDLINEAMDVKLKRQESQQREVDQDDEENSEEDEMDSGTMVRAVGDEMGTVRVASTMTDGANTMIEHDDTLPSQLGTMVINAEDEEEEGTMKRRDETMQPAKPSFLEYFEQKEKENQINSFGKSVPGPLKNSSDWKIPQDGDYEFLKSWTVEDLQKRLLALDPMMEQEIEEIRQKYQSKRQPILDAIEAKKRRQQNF

[5] = biological target: Serine/threonine-protein kinase PAK 1 (Homo sapiens) (UniProt Q13153); assay: Inhibition of PAK1 at 1 uM
Sequence of Serine/threonine-protein kinase PAK 1 (Homo sapiens) (Q13153 whole entry): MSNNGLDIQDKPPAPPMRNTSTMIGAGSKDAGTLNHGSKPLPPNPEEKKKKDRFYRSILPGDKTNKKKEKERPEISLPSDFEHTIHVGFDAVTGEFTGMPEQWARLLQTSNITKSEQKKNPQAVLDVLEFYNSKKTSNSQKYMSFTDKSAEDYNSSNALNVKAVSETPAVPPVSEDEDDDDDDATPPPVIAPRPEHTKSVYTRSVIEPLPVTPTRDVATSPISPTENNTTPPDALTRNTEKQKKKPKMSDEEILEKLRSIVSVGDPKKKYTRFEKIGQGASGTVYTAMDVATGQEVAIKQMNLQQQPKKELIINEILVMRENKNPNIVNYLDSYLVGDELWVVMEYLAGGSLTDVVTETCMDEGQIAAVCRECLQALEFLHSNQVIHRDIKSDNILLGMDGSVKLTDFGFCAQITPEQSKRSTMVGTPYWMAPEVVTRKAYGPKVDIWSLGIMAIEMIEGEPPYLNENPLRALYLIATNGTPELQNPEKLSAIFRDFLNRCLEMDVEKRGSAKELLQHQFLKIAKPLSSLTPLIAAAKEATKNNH

[6] = Inhibition of PDGFR at 1 uM
[7] = biological target: Serine/threonine-protein kinase pim-1 (Homo sapiens) (UniProt P11309); assay: Inhibition of PIM1 at 1 uM
Sequence of Serine/threonine-protein kinase pim-1 (Homo sapiens) (P11309 whole entry, looked up): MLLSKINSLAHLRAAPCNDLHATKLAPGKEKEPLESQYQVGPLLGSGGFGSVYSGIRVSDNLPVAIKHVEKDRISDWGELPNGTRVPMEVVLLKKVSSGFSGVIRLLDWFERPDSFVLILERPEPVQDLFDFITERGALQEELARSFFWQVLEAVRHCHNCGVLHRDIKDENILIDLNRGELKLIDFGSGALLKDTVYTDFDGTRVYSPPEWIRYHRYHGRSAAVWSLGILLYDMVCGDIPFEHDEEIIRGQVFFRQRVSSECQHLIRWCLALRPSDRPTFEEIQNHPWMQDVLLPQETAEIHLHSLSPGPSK

[8] = biological target: Ribosomal protein S6 kinase alpha-1 (Homo sapiens) (UniProt Q15418); assay: Inhibition of RPS6KA1 at 1 uM
Sequence of Ribosomal protein S6 kinase alpha-1 (Homo sapiens) (Q15418 whole entry): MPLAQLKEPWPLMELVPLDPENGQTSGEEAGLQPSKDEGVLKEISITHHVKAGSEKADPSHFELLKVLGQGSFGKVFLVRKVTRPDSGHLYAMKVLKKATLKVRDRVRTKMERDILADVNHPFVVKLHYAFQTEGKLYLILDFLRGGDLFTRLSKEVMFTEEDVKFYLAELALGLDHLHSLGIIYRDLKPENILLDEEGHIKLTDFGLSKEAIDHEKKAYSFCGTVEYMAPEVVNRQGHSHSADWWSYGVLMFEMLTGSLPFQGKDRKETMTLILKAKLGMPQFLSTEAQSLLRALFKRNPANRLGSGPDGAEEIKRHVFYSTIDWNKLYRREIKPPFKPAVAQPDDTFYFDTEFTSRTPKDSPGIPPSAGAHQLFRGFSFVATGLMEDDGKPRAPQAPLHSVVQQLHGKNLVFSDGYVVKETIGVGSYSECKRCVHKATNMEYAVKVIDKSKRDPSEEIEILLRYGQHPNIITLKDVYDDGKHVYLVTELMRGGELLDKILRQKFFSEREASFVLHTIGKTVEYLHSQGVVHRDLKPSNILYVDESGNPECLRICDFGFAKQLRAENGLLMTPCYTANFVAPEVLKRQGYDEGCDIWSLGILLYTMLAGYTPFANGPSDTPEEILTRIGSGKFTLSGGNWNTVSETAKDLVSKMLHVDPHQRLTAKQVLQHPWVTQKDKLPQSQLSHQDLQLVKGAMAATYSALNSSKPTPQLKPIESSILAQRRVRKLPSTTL

[9] = system: Serine/threonine-protein kinase B-raf (Homo sapiens), P15056 [V600E]; assay: Inhibition of BRAF V600E mutant at 5 uM
[10] = biological target: Focal adhesion kinase 1 (Homo sapiens) (UniProt Q05397); assay: Inhibition of FAK at 5 uM
[11] = biological target: Fibroblast growth factor receptor 1 (Homo sapiens) (UniProt P11362); assay: Inhibition of FGFR1 at 5 uM
[12] = biological target: T2, Inhibitor of nuclear factor kappa-B kinase subunit beta (Homo sapiens); assay: Inhibition of IKKbeta at 5 uM
[13] = biological target: Insulin receptor (Homo sapiens) (UniProt P06213); assay: Inhibition of INSR at 5 uM
Sequence of Insulin receptor (Homo sapiens) (P06213 28-758 limits assumed): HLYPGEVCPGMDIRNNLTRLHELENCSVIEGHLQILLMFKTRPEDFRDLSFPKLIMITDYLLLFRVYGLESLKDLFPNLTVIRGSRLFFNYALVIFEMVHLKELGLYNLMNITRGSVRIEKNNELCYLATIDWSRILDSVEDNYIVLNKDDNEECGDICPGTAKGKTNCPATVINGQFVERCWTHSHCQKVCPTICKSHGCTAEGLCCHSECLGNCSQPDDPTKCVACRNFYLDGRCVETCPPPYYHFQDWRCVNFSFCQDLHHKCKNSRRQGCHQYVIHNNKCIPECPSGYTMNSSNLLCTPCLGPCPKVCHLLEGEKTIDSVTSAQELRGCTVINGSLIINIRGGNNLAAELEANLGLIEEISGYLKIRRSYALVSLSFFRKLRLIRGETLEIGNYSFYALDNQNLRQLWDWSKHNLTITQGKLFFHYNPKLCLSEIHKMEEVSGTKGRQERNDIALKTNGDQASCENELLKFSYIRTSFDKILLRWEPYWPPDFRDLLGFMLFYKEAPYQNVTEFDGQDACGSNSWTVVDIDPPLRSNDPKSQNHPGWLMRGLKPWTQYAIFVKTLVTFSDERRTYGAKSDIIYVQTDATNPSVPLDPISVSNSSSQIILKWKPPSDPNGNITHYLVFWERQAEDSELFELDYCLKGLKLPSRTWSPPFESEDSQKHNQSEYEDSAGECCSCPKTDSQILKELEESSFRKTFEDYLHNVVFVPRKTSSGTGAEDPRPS
Sequence of Insulin receptor (Homo sapiens) (P06213 763-1382 limits assumed): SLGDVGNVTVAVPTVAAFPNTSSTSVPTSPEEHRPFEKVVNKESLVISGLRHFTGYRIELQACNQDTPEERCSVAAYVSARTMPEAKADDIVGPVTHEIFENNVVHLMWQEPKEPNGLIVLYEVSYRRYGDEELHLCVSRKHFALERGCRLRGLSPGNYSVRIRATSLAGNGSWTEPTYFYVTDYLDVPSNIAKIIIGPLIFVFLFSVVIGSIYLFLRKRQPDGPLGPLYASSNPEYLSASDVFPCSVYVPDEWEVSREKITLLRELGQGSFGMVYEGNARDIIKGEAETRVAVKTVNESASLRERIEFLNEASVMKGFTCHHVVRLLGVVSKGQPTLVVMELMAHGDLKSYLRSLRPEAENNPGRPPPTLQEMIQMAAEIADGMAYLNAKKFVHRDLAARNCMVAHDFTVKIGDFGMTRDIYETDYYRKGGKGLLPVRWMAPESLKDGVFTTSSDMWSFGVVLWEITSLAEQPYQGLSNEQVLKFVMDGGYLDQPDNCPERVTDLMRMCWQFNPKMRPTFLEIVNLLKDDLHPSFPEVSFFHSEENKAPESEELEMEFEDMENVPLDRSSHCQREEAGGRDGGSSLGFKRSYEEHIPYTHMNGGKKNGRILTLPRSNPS

[14] = biological target: Dual specificity mitogen-activated protein kinase kinase 1 (Homo sapiens) (UniProt Q02750); assay: Inhibition of MEK1 at 5 uM
Sequence of Dual specificity mitogen-activated protein kinase kinase 1 (Homo sapiens) (Q02750 whole entry): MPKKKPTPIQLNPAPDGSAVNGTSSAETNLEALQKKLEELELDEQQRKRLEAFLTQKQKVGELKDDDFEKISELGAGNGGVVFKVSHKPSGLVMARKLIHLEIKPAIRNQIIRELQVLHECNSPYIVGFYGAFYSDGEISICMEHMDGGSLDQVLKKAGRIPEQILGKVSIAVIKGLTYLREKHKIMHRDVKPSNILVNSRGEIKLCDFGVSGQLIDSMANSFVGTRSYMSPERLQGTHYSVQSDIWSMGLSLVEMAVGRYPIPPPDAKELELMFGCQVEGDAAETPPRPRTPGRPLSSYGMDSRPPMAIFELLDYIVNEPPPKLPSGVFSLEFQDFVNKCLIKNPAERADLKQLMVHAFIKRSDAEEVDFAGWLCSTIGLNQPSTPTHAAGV

[15] = biological target: Serine/threonine-protein kinase pim-2 (Homo sapiens) (UniProt Q9P1W9); assay: Inhibition of PIM2 at 5 uM
Sequence of Serine/threonine-protein kinase pim-2 (Homo sapiens) (Q9P1W9 whole entry, looked up): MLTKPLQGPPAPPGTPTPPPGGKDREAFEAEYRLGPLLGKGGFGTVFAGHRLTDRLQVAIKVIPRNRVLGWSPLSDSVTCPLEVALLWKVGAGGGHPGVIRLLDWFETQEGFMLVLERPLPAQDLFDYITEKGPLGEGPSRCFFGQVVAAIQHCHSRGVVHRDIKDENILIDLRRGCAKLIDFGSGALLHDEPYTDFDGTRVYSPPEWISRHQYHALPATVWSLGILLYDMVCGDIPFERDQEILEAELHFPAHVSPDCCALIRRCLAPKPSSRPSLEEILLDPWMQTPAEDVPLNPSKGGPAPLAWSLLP

[16] = biological target: T4, Serine/threonine-protein kinase Sgk1 (Homo sapiens) (UniProt O00141); assay: Inhibition of SGK1 at 5 uM
T4 sequence (whole entry): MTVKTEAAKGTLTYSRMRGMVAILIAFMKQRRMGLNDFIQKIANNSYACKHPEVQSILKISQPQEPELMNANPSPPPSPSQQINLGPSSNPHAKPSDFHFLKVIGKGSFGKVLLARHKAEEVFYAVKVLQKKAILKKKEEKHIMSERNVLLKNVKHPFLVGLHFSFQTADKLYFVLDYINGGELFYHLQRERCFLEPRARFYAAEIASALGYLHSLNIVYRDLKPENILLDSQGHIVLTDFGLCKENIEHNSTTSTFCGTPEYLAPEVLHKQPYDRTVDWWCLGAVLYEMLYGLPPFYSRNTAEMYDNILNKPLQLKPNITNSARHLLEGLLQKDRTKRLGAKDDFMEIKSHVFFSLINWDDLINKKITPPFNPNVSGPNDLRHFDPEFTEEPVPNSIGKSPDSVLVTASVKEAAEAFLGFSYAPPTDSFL

Cc1c(CN2CCN(S(C)(=O)=O)CC2)nc2c(N3CCOCC3)nc(-c3cnc(N)nc3)cn12
< 30%: inhibition at 10 µM (CYP1A2) | inhibition [1] | inhibition [2] | inhibition [3] | inhibition [4] | inhibition [5] | inhibition [6] | inhibition [7] | inhibition [8] | inhibition [9] | inhibition [10] | inhibition [11] | inhibition [12] | inhibition [13] | inhibition [14] | inhibition [15] | inhibition [16]

CS(=O)(=O)N1CCN(Cc2cn3c(Cl)c(-c4cnc(N)nc4)nc(N4CCOCC4)c3n2)CC1
< 30%: inhibition at 10 µM (CYP1A2) | inhibition [1] | inhibition [2] | inhibition [3] | inhibition [4] | inhibition [5] | inhibition [6] | inhibition [7] | inhibition [8] | inhibition [9] | inhibition [10] | inhibition [11] | inhibition [12] | inhibition [13] | inhibition [14] | inhibition [15] | inhibition [16]

Cc1nc(N)ncc1-c1cn2cc(CN3CCN(S(C)(=O)=O)CC3)nc2c(N2CCOCC2)n1
< 30%: inhibition [1] | inhibition [2] | inhibition [3] | inhibition [4] | inhibition [5] | inhibition [6] | inhibition [7] | inhibition [8] | inhibition [9] | inhibition [10] | inhibition [11] | inhibition [12] | inhibition [13] | inhibition [14] | inhibition [15] | inhibition [16]

CS(=O)(=O)N1CCN(Cc2nc3c(N4CCOCC4)nc(-c4cnc(N)nc4)cn3c2Br)CC1
< 30%: inhibition at 10 µM (CYP1A2) | inhibition [1] | inhibition [2] | inhibition [3] | inhibition [4] | inhibition [5] | inhibition [6] | inhibition [7] | inhibition [8] | inhibition [9] | inhibition [10] | inhibition [11] | inhibition [12] | inhibition [13] | inhibition [14] | inhibition [15] | inhibition [16]

CS(=O)(=O)N1CCN(Cc2cn3cc(-c4cnc(N)nc4)nc(N4CCOCC4)c3n2)CC1
< 30%: inhibition at 10 µM (CYP1A2) | inhibition [1] | inhibition [2] | inhibition [3] | inhibition [4] | inhibition [5] | inhibition [6] | inhibition [7] | inhibition [8] | inhibition [9] | inhibition [10] | inhibition [11] | inhibition [12] | inhibition [13] | inhibition [14] | inhibition [15] | inhibition [16]
